Experimental data as given in patent publication US11083789B2, “IVIG treatments for Bell's palsy” (InnoMed Technologies, Inc., priority 2019, dated 2021).

How the values were obtained:
Bell's Palsy [1] = conditions: prednisolone 60 mg per day for 5 days then reduced by 10 mg per day, and 50 mg per day for 10 days; cited from earlier work
Bell's Palsy [2] = experiment: Example 2: treatment of a person suffering from Bell's Palsy; type: in vivo, human; conditions: 60 mg/day prednisone therapy alone for a month
Experimental: The patient, a person is diagnosed by their doctor as suffering from Bell's Palsy. […] The patient is then administered IVIG at 2 g/kg and 60 mg prednisone. Within three weeks, the Bell's Palsy is resolved by about 80%. The patient is then administered a second dose of IVIG at 2 g/kg and 60 mg. prednisone. Within two weeks, the patient is resolved by about 95%.

Bell's Palsy [3] = experiment: Example 1: treatment of person suffering from Bell's Palsy; type: in vivo, human; conditions: 60 mg/day prednisone therapy alone, two weeks
Experimental: The patient, a person was diagnosed by their doctor after claiming they are suffering from unexplained facial weakness. The patient's doctor diagnosed the patient as suffering from Bell's Palsy. […] Two weeks after administration, the patient is co-administered a single dose of IVIG at 2 g/kg and 60 mg prednisone and Bell's Palsy related symptoms the patient suffered from are reduced by 70% within two weeks from the co-administration.

| SMILES | outcome in patients with Bell's palsy (Bell's Palsy [1]) | time to complete recovery (Bell's Palsy [1]) | resolution of Bell's Palsy (Bell's Palsy [2]) | reduction in the symptoms of Bell's Palsy (Bell's Palsy [3]) |
| --- | --- | --- | --- | --- |
| C[C@]12C=CC(=O)C=C1CC[C@@H]1[C@@H]2[C@@H](O)C[C@@]2(C)[C@H]1CC[C@]2(O)C(=O)CO [prednisolone] | improves outcome | shortens the time to complete recovery |  |  |
| C[C@]12C=CC(=O)C=C1CC[C@@H]1[C@@H]2C(=O)C[C@@]2(C)[C@H]1CC[C@]2(O)C(=O)CO [prednisone] |  |  | did not resolve | no reduction |
